pIC50: −log10 of the molar value. ≈ marks a conversion by molar mass, not a printed value. Bounds are passed on as bounds.

A word on the MIC: it is the lowest concentration found to suppress growth. By IC90 is commonly meant the concentration needed for an effect of 90%. By MIC90 is commonly meant an inhibitory concentration at the 90% level, which refers to growth in some studies and to a panel of isolates in others. What is called MIC50 is an inhibitory concentration at the 50% level, which refers to growth in some studies and to a panel of isolates in others. One may read the pIC50 as the IC50 on a negative log10 scale, so that one unit is a factor of ten. As usually defined, the IC50 is the concentration that inhibits the measured activity by half.

The subject of test [1] is Mycobacterium tuberculosis. In words: Antitubercular activity against Mycobacterium tuberculosis H37Rv ATCC25618 assessed as bacterial growth inhibition incubated for 6 days by resazurin based fluorescence analysis. The format is functional. The settings on record: H37Rv ATCC25618, 144 h, time 6 day. A general note: Resazurin is reduced to fluorescent resorufin, in cell work by metabolically active cells.

The subject of test [2] is Mycobacterium tuberculosis. Description: Antitubercular activity against Mycobacterium tuberculosis H37Rv assessed as bacterial growth inhibition incubated for 24 hrs by [14C]-acetate labelling based radiometric analysis. The test is classed as functional.
Test [3] has as its system Mycobacteroides abscessus. Description: Antitubercular activity against Mycobacterium abscessus CIP104536 assessed as bacterial growth inhibition incubated 3 to 5 days by resazurin based broth microdilution method. The format is functional. The settings on record: time 3-5 day.
The test system of test [4] is Mycobacterium tuberculosis. In words: Antitubercular activity against Mycobacterium tuberculosis H37Rv expressing GFP assessed as bacterial growth inhibition by measuring GFP fluorescence incubated for 72 hrs by fluorescence analysis. The format is functional.
For test [5], the system named is Mycobacterium tuberculosis. Description: Antitubercular activity against Mycobacterium tuberculosis H37Rv ATCC 27294 infected in mouse J774 cells assessed as intracellular bacterial growth inhibition incubated for by resazurin microtiter assay. The test is classed as functional.
Test [6] deals with Mycobacterium tuberculosis. Description: Antitubercular activity against Mycobacterium tuberculosis H37Rv ATCC 27294 assessed as bacterial growth inhibition by resazurin microtiter assay. The format is functional.
Test [7] concerns Mycobacterium tuberculosis. Description: Antitubercular activity against Mycobacterium tuberculosis mc2 7000 assessed as bacterial growth inhibition incubated for 6 days by resazurin based fluorescence assay. Conditions: mc2 7000, 144 h, time 6 day. The format is functional.
Test [8] has as its system Mycobacterium tuberculosis. In words: Antitubercular activity against Mycobacterium tuberculosis H37Rv assessed as bacterial growth inhibition. The test is classed as functional.
Test [9] has as its system Mycobacterium tuberculosis. Description: In vivo antimycobacterial activity against Mycobacterium tuberculosis H37Rv infected in BALB/c mouse assessed as reduction in log10 CFU in lungs at 12.5 mg/kg, po and measured after 4 weeks. The test is classed as functional.
Test [10] deals with Mycobacterium tuberculosis. In words: In vivo antimycobacterial activity against Mycobacterium tuberculosis H37Rv infected in BALB/c mouse assessed as reduction in log10 CFU in lungs at 50 mg/kg, po and measured after 4 weeks. The format is functional.
Test [11] deals with Mycobacterium tuberculosis. In words: Antitubercular activity against Mycobacterium tuberculosis H37Rv assessed as bacterial growth inhibition and measured upto 14 days by microplate alamar blue assay. The format is functional. Conditions: 336 h, time <= 14 day.
Test [12] deals with Mycobacterium tuberculosis. Description: Antitubercular activity against Mycobacterium tuberculosis H37Rv assessed as bacterial growth inhibition by REMA analysis. The format is functional.
Test [13] deals with T1, Decaprenylphosphoryl-beta-D-ribose oxidase (Mycobacterium tuberculosis (strain ATCC 25618 / H37Rv), UniProt P9WJF1).
T1 sequence (P9WJF1 whole entry): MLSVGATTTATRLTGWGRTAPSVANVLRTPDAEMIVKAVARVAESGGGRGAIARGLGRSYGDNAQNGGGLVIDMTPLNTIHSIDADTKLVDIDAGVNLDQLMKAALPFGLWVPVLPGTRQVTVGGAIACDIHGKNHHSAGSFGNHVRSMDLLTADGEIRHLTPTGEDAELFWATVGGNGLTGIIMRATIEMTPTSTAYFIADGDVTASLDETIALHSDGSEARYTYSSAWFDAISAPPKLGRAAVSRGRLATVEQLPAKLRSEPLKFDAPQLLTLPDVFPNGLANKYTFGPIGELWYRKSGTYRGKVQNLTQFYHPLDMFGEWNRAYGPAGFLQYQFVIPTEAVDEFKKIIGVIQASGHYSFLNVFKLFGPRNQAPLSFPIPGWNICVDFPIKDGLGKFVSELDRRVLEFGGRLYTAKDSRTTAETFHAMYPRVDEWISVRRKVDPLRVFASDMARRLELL
In words: Inhibition of Mycobacterium tuberculosis H37Rv DprE1 assessed as formation of resorufin using farnesyl-phosphoryl-beta-D-ribofuranose by AmplexRed reagent based fluorescence assay.

In test [14] the test system is Mycobacterium tuberculosis. Description: Antimycobacterial activity against Mycobacterium tuberculosis H37Rv assessed as bacterial growth inhibition incubated for 1 week by resazurin reduction microplate assay. The settings on record: 168 h, time 1 weeks. The format is functional.
The subject of test [15] is Mycobacterium tuberculosis. Description: Antitubercular activity against Mycobacterium tuberculosis assessed as bacterial growth inhibition. The format is functional.
The subject of test [16] is Mycobacterium tuberculosis. In words: Antitubercular activity against Mycobacterium tuberculosis MDR_CHUV assessed as bacterial growth inhibition by REMA analysis. The test is classed as functional.
For test [17], the system named is Mycobacterium tuberculosis. In words: Antitubercular activity against Mycobacterium tuberculosis H37Rv infected in human monocyte macrophage assessed as bacterial growth inhibition and measured after 21 days by colony counting based analysis. The test is classed as functional. The settings on record: 504 h, time 21 day.
The test system of test [18] is Mycobacterium tuberculosis. Description: Antitubercular activity against Mycobacterium tuberculosis H37Rv assessed as bacterial growth inhibition incubated for 7 days by resazurin reduction microplate assay. The format is functional. Conditions: 168 h, time 7 day.
The subject of test [19] is Mycobacterium tuberculosis. Description: Antitubercular activity against Mycobacterium tuberculosis H37Rv infected in human THP-1 cells assessed as bacterial growth inhibition incubated for 48 hrs by PrestoBlue staining based fluorescence analysis. The format is functional, organism-based. The settings on record: THP-1, 48 h.
Test [20] relates to Mycobacterium tuberculosis. In words: Antitubercular activity against Mycobacterium tuberculosis H37Rv assessed as bacterial growth inhibition incubated for 6 days by resazurin based fluorescence assay. The test is classed as functional. Conditions: 144 h, time 6 day.

Take `CCCc1ccc(NC(=O)COc2cc(C)nc3ccc(OC)cc23)cc1`: the MIC in [1] came out at 0.02 µg/mL (≈ 0.0549 µM). Regarding `CCc1ccc([C@H]2C[C@@H](C(F)(F)F)n3ncc(C(=O)NCc4ccc(F)cn4)c3N2)cc1`, the MIC in test [2] amounted to 0.5 µM (≈ 0.224 µg/mL). In the case of `OC1(c2ccc(Cl)c(C(F)(F)F)c2)CCN(Cc2ccccc2I)CC1`, in [3], the MIC99 stood at 0.125 µg/mL (≈ 0.252 µM).

As for `CCCn1cnc2cc(NCc3ccc(Cl)cc3Cl)ccc21`, in test [4], the concentration for an effect of 90% (IC90) is 16 µM. Take `CCc1ccc(NC(=O)COc2cc(C)nc3ccc(OC)cc23)cc1`: the MIC in test [1] came out at 0.02 µg/mL (≈ 0.0571 µM).

In the case of `COc1ccc(/C=C2/S/C(=N/N=C/c3ccccc3O)NC2=O)cc1`, the minimum inhibitory concentration (MIC) in test [5] is 4 µg/mL (≈ 11.3 µM). The MIC90 in test [6] was found to be 1 µg/mL (≈ 2.83 µM). In the case of `CCOC(=O)c1c(-c2ccccc2)oc2ccc(O)c(CN3CCC(C)CC3)c12`, the MIC in test [7] was determined as 2.3 µM (≈ 0.905 µg/mL). In the case of `CCCCCCCCn1cc(CN2CCC3(CC2)OCCCO3)c2ccc(OC)cc21`, in test [8], the MIC50 was 0.5 µM (≈ 0.214 µg/mL).

Take `CC1(C)CCC(NC(=O)c2cc3c(Cl)cc(Cl)cc3[nH]2)CC1`: the Activity was 1.24 log10CFU in test [9] and 3.82 log10CFU in [10]. For `Cc1cc(C)c2cc(C(=O)NC3CCCCC3)[nH]c2c1`, the minimal inhibitory concentration (MIC) in test [11] came out at 0.125 µg/mL (≈ 0.462 µM).

Consider `CCOC(=O)c1c(-c2ccccc2)oc2ccc(O)c(CN3CCCCC3)c12`, for which the minimal inhibitory concentration (MIC) in test [7] stood at 0.4 µM (≈ 0.152 µg/mL). For the molecule `CCc1ccc([C@H]2C[C@@H](C(F)(F)F)n3ncc(C(=O)NCc4ccc(F)cc4)c3N2)cc1`, in [2], the MIC came to 0.16 µM (≈ 0.0714 µg/mL). As to `CCOc1ccc(CNc2nc3cc(C(F)(F)F)ccc3nc2C(=O)O)cc1`, the MIC99 in test [12] is 3.1 µM (≈ 1.21 µg/mL). As to `CCCCCCCCn1cc(CN2CCCCCC2)c2c(F)cccc21`, the MIC50 in [8] worked out at 2.3 µM (≈ 0.825 µg/mL). In the case of `Cc1cc(C)c2cc(C(=O)NC3CCCCCC3)[nH]c2c1`, the minimum inhibitory concentration (MIC) in test [11] was determined as 0.0156 µg/mL (≈ 0.0549 µM). In the case of `C[C@H]1COC2(CCN(c3nc(=O)c4cc(C(F)(F)F)cc(-n5cccc5)c4s3)CC2)O1`, the negative logarithm of the IC50 (pIC50) in test [13] was more than 5.10. The MIC in test [14] stood at 0.35 µM (≈ 0.158 µg/mL). For `CC(C)(C)c1ccc(Cn2cnc([N+](=O)[O-])n2)cc1`, in test [4], the concentration for an effect of 90% (IC90) is 0.5 µM.

For the molecule `O=c1nc(N2CCN(CC3CCCCC3)CC2)sc2c(-n3cccc3)cc(C(F)(F)F)cc12`, the pIC50 in [13] is more than 5.10. For the same molecule, the minimal inhibitory concentration (MIC) in [14] came to 0.34 µM (≈ 0.162 µg/mL). `O=c1c(NCc2ccccn2)c(-c2ccc(N3CCOCC3)cc2)c1=O`: in test [8], the minimum inhibitory concentration (MIC) is 0.016 µg/mL (≈ 0.0458 µM). Regarding `O=c1nc(N2CCN(CCC3CCCCC3)CC2)sc2c([N+](=O)[O-])cc(C(F)(F)F)cc12`, in test [12], the minimal inhibitory concentration (MIC) is 0.00019 µg/mL (≈ 0.000404 µM). In the case of `O=C1CCc2c(cccc2OC[C@]2(O)CCN(c3c(F)cc(Cl)cc3F)C[C@H]2O)N1`, the MIC in test [15] came to 0.0005 µg/mL (≈ 0.00114 µM). Regarding `C[C@H]1COC2(CCN(c3nc(=O)c4cc(C(F)(F)F)cc([N+](=O)[O-])c4s3)CC2)O1` [BTZ-043], the MIC99 in test [16] worked out at 0.002 µg/mL (≈ 0.00464 µM).

As for `Brc1ccc2[nH]c(CCC3CCCCC3)nc2c1`, the MIC99 in [17] was determined as 2.44 µM (≈ 0.75 µg/mL). As to `O=c1nc(N2CCN(CC3CCCCC3)CC2)sc2c([N+](=O)[O-])cc(C(F)(F)F)cc12` [MACOZINONE], the MIC99 in test [8] turned out to be 0.003 µg/mL (≈ 0.00657 µM); in [16] it was 0.0004 µg/mL (≈ 0.000876 µM).

On to `CCSc1nc(NC)c2cccc(F)c2n1`, for which the minimum inhibitory concentration (MIC) in test [18] came out at 0.04 µg/mL (≈ 0.169 µM). For the same molecule, the IC50 in test [19] worked out at 0.013 µg/mL (≈ 0.0548 µM). As for `O=c1nc(N2CCN(CCCCc3ccccc3)CC2)sc2c([N+](=O)[O-])cc(C(F)(F)F)cc12`, in [12], the minimal inhibitory concentration (MIC) stood at 0.00035 µg/mL (≈ 0.000711 µM). As to `CCc1ccc([C@H]2C[C@@H](C(F)(F)F)n3ncc(C(=O)NCc4ccc(OC)cc4)c3N2)cc1`, the minimal inhibitory concentration (MIC) in test [20] was determined as 0.25 µM (≈ 0.115 µg/mL). As for `Cc1cc(C)c2cc(C(=O)NC3CCCCCCC3)[nH]c2c1`, in test [11], the minimum inhibitory concentration (MIC) worked out at 0.0039 µg/mL (≈ 0.0131 µM).

The values are drawn from ChEMBL document CHEMBL5260858, “Targeting mycobacterial membranes and membrane proteins: Progress and limitations” (Bioorg Med Chem, 2023).
